In ChEMBL document CHEMBL5550210, “Discovery of Novel α,β-Unsaturated Amide Derivatives as Candidate Antifungals to Overcome Fungal Resistance” (J Med Chem, 2024):
≈ marks a conversion by molar mass, not a printed value. Calls of active or inactive are those of the source. No cut-off for these calls is given here.

Tests used:
Pichia kudriavzevii = test: Antifungal activity against Candida krusei AS 2.1045 assessed as inhibition of fungal growth by CLSI protocol based microdilution method; type: functional
Candida albicans [1] = test: Antifungal activity against fluconazole-resistant Candida albicans 904 assessed as downregulation of CPH1 gene expression at 16 ug/ml incubated for 12 hrs by RT-PCR analysis; type: functional, organism-based; conditions: dose 16.0 µg/ml
Candida albicans [2] = test: Antifungal activity against Candida albicans CPCC400616 assessed as downregulation of EFG1 gene expression at 2 ug/ml incubated for 12 hrs by RT-PCR analysis; type: functional, organism-based; conditions: dose 2.0 µg/ml
Candida albicans [3] = test: Ratio of MFC for fungicidal activity against Candida albicans to MIC for antifungal activity against Candida albicans; type: functional
Candida tropicalis = test: Antifungal activity against Candida tropicalis CGMCC 2.3739 assessed as inhibition of fungal growth by CLSI protocol based microdilution method; type: functional
[4] = target: Voltage-gated inwardly rectifying potassium channel KCNH2 (Homo sapiens, UniProt Q12809); test: Inhibition of hERG1; type: toxicity
Chain of Voltage-gated inwardly rectifying potassium channel KCNH2 (Q12809 whole entry): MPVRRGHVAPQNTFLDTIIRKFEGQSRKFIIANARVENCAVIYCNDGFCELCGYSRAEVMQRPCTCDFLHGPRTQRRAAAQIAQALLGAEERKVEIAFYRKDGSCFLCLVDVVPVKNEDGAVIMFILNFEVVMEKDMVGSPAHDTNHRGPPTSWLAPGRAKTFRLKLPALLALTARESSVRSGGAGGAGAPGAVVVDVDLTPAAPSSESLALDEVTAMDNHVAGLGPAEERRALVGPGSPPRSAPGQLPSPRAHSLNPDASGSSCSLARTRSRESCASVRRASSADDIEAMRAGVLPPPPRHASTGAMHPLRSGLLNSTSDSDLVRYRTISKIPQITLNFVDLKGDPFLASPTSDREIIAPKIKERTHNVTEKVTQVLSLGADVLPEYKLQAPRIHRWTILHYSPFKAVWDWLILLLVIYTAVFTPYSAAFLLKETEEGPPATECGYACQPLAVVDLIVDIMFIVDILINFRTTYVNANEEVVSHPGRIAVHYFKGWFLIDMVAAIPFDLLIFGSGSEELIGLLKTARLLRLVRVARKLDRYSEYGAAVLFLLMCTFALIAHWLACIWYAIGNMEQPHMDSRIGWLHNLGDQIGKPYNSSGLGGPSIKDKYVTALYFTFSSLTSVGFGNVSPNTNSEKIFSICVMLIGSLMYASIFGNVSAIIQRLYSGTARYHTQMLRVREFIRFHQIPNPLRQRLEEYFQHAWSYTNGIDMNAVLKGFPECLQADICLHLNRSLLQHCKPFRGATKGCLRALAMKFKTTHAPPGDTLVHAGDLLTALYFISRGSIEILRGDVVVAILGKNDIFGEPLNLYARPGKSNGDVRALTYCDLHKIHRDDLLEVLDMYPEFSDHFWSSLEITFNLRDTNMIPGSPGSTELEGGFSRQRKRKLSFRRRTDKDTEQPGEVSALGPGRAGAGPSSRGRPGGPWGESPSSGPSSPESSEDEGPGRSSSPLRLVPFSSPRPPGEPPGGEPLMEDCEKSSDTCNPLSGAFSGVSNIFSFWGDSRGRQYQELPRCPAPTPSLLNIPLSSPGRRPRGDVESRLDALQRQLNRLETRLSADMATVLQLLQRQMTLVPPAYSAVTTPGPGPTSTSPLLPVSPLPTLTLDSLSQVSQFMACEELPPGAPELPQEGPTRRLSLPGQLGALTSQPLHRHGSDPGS

Candida albicans [5] = test: Antifungal activity against fluconazole-resistant Candida albicans 632 assessed as inhibition of fungal growth by CLSI based microdilution method; type: functional
Candida albicans [6] = test: Antifungal activity against fluconazole-resistant Candida albicans 904 assessed as inhibition of fungal growth by CLSI based microdilution method; type: functional
Candida albicans [7] = test: Antifungal activity against fluconazole-resistant Candida albicans CaR assessed as inhibition of fungal growth by CLSI based microdilution method; type: functional
Candida albicans [8] = test: Antifungal activity against fluconazole-resistant Candida albicans 904 assessed as downregulation of MDR1 gene expression at 16 ug/ml incubated for 16 hrs by RT-PCR analysis; type: functional, organism-based; conditions: dose 16.0 µg/ml
Candida albicans [9] = test: Antifungal activity against Candida albicans CPCC400616 assessed as downregulation of ALS3 gene expression at 2 ug/ml incubated for 12 hrs by RT-PCR analysis; type: functional, organism-based; conditions: dose 2.0 µg/ml
[10] = target: T1, Lanosterol 14-alpha demethylase (Candida albicans (strain SC5314 / ATCC MYA-2876) (Yeast), UniProt P10613); test: Inhibition of CYP51 in Candida albicans SC5314 assessed as increase in obtusifoliol level at 0.031 ug/ml incubated for 24 hrs by GC-MS analysis relative to control; conditions: at 0.031 µg/mL
T1 sequence (P10613 whole entry): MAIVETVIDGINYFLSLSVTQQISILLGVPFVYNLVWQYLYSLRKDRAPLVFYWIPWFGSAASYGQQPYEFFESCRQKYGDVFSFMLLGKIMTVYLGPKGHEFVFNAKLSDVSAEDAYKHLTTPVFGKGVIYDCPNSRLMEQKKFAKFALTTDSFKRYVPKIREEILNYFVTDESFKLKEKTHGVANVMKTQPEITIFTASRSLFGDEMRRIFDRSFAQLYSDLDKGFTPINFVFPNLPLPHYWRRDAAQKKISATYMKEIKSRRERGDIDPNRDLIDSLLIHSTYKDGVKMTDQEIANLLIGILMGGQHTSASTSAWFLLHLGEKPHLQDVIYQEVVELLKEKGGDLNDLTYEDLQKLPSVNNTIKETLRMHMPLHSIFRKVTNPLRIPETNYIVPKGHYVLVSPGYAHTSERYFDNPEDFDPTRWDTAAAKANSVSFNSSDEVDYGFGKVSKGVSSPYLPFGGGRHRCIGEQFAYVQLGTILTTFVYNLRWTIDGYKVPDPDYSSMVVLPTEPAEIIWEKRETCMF

Candida albicans [11] = test: Antifungal activity against Candida albicans CPCC400616 assessed as downregulation of TEC1 gene expression at 2 ug/ml incubated for 12 hrs by RT-PCR analysis; type: functional, organism-based; conditions: dose 2.0 µg/ml
Candida albicans [12] = test: Antifungal activity against Candida albicans assessed as inhibition of fungal growth by CLSI protocol based microdilution method; type: functional
[13] = target: T1, Lanosterol 14-alpha demethylase; test: Inhibition of CYP51 in Candida albicans SC5314 assessed as reduction in ergosterol content at 0.031 ug/ml incubated for 24 hrs by GC-MS analysis relative to control; conditions: at 0.031 µg/mL
[14] = Acute toxicity in rat assessed as Low-observed adverse effect level at po administration; type: organism-based; conditions: in vivo
Candida albicans [15] = test: Antifungal activity against Candida albicans SC5314 assessed as inhibition of fungal growth by CLSI protocol based microdilution method; type: functional
Aspergillus fumigatus = test: Antifungal activity against Aspergillus fumigatus CGMCC 3.7795 assessed as inhibition of fungal growth by CLSI protocol based microdilution method; type: functional
[16] = Stability in mouse plasma assessed as parent compound remaining measured at 180 mins; type: ADME, cell-free; conditions: read-out: Stability
Candida albicans [17] = test: Antifungal activity against fluconazole-resistant Candida albicans 904 assessed as downregulation of CDR1 gene expression at 16 ug/ml incubated for 16 hrs by RT-PCR analysis; type: functional, organism-based; conditions: dose 16.0 µg/ml
Candida albicans [18] = test: Fungicidal activity against Candida albicans assessed as inhibition of fungal growth measured after 48 hrs by CLSI protocol based microdilution method; type: functional
Candida albicans [19] = test: Antifungal activity against fluconazole-resistant Candida albicans 904 assessed as inhibition of fungal biofilm formation incubated for 24 hrs by XTT assay; type: functional, organism-based
Candida albicans [20] = test: Antifungal activity against fluconazole-resistant Candida albicans 904 assessed as increase in intracellular fluorescence intensity at 32 ug/ml incubated for 4 hrs by fluorescence inverted microscopic analysis; type: functional, organism-based; conditions: dose 32.0 µg/ml
Candida albicans [21] = test: Antifungal activity against fluconazole-resistant Candida albicans 901 assessed as inhibition of fungal growth by CLSI based microdilution method; type: functional
J774.A1 = test: Cytotoxicity against mouse J774.A1 cells assessed as inhibition of cell growth incubated for 72 hrs by MTT assay; type: functional, cell-based; conditions: J774.A1, 72 h
Candida albicans [22] = test: Antifungal activity against fluconazole-resistant Candida albicans 17 assessed as inhibition of fungal growth by CLSI based microdilution method; type: functional
[23] = target: T2, Voltage-gated inwardly rectifying potassium channel KCNH6 (Homo sapiens, UniProt Q9H252); test: Inhibition of hERG2; type: toxicity
T2 sequence (Q9H252 whole entry): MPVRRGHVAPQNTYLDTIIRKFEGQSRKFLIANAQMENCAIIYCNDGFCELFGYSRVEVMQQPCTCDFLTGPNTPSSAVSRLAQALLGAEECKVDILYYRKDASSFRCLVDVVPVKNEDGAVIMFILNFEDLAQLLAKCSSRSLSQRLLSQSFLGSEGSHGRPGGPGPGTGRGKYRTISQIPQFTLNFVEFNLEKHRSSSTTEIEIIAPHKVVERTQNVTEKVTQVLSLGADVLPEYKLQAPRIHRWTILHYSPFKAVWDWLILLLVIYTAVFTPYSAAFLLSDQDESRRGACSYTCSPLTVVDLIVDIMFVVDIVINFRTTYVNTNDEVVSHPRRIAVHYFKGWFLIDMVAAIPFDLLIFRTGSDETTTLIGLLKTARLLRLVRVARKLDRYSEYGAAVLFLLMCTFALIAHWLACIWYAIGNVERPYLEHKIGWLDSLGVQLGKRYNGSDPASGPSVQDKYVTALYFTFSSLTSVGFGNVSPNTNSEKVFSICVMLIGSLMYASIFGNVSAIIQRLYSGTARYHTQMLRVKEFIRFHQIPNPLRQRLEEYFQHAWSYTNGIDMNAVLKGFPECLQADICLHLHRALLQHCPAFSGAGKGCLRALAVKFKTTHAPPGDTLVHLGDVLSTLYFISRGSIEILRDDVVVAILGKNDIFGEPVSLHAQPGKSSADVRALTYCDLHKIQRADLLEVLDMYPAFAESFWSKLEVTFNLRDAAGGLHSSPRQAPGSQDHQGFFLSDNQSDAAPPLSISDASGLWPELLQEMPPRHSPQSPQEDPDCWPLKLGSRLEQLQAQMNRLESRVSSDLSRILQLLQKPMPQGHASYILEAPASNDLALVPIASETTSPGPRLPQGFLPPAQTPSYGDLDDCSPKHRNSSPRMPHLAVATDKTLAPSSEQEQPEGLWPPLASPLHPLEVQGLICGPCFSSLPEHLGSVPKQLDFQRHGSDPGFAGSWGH

Candida albicans [24] = test: Antifungal activity against Candida albicans CPCC400616 assessed as downregulation of CPH1 gene expression at 2 ug/ml incubated for 12 hrs by RT-PCR analysis; type: functional, organism-based; conditions: dose 2.0 µg/ml
Candida albicans [25] = test: Antifungal activity against fluconazole-resistant Candida albicans 904 assessed as increase in intracellular ROS production at 32 ug/ml incubated for 4 hrs by DCFH-DA probe based fluorescence spectrophotometric analysis; type: functional, organism-based; conditions: dose 32.0 µg/ml

Row | SMILES | MIC (Pichia kudriavzevii) [µg/mL] | Activity (Candida albicans [1]) | Activity (Candida albicans [2]) | Ratio (Candida albicans [3]) | MIC (Candida tropicalis) [µg/mL] | inhibition (INH) [4] | MIC (Candida albicans [5]) [µg/mL] | MIC (Candida albicans [6]) [µg/mL] | MIC (Candida albicans [7]) [µg/mL] | Activity (Candida albicans [8]) | Activity (Candida albicans [9]) | inhibition (INH) [10] | Activity (Candida albicans [11]) | MIC (Candida albicans [12]) [µg/mL] | inhibition (INH) [13] [%] | LOAEL [14] [mg/kg] | MIC (Candida albicans [15]) [µg/mL] | MIC (Aspergillus fumigatus) [µg/mL] | remaining at 3 h [16] [%] | Activity (Candida albicans [17]) | also measured
1 | CCCCNC(=O)/C=C/c1ccc(COC(Cn2ccnc2)c2ccc(Cl)cc2Cl)cc1 (stereo not drawn) | 2 (≈ 4.23 µM) | Active | Active | 16 | 64 (≈ 135 µM) | Not Active | 0.25 (≈ 0.529 µM) | 1 (≈ 2.12 µM) | 1 (≈ 2.12 µM) | Active | Active | Active | Active | 2 (≈ 4.23 µM) | 0.67 | 1.138 | 0.015 (≈ 0.0318 µM) | 0.5 (≈ 1.06 µM) | 102 | Active | MFC (Candida albicans [18]): 32 µg/mL (≈ 67.7 µM); Activity (Candida albicans [19]): Dose-Dependent Effect; Activity (Candida albicans [20]): Active; MIC (Candida albicans [21]): 1 µg/mL (≈ 2.12 µM); IC50 (J774.A1): 29.4 µM; MIC (Candida albicans [22]): 4 µg/mL (≈ 8.47 µM); inhibition (INH) [23]: Active; Activity (Candida albicans [24]): Active; Activity (Candida albicans [25]): Active
2 | O=C(/C=C/c1ccc(COC(Cn2ccnc2)c2ccc(Cl)cc2Cl)cc1)Nc1ccc(Cl)cc1Cl (stereo not drawn) | 0.5 (≈ 0.891 µM) | Active | Active | 32 | 2 (≈ 3.56 µM) | Active | 0.25 (≈ 0.445 µM) | 1 (≈ 1.78 µM) | 1 (≈ 1.78 µM) | Active | Active | Active | Active | 1 (≈ 1.78 µM) | 1.25 | 0.452 | 0.03 (≈ 0.0534 µM) | 0.5 (≈ 0.891 µM) | 97.8 | Active | MFC (Candida albicans [18]): 32 µg/mL (≈ 57 µM); Activity (Candida albicans [19]): Dose-Dependent Effect; Activity (Candida albicans [20]): Active; MIC (Candida albicans [21]): 1 µg/mL (≈ 1.78 µM); IC50 (J774.A1): 24.6 µM; MIC (Candida albicans [22]): 0.25 µg/mL (≈ 0.445 µM); inhibition (INH) [23]: Active; Activity (Candida albicans [24]): Active; Activity (Candida albicans [25]): Active
